Read-outs that look alike come from different tables or passages of the source.
What was measured:
Assay type in all cases: cell-based, Schistosoma mansoni
[1] = system: S. mansoni schistosomulae; assay: Phenotypic primary screen assay on schistosomulae (phenotype; viability by methylene blue dye exclusion); settings: for Viability (%) / Phenotype: three-day-old schistosomulae, 10 μM, 24 h; for Viability (%): calculated 5 days post compound exposure; for Phenotype: estimated 5 days post compound exposure
Experimental: Puerto Rican strain Biomphalaria glabrata snails infected with S. mansoni were kindly provided by Dr. Fred Lewis (Biomedical Research Institute and BEI Resources, MD, USA). Schistosomulae were obtained by exposing six to eight weeks-old snails to continuous light for 2 h at 32 °C. […] At this point, animals with internal dark granulations and with no observable body contraction/relaxation cycles were considered dead.
Schistosomulae were monitored under a stereo microscope (SMZ1270, Nikon). Phenotypic observations were made by analyzing schistosomulae, 24 h after drug addition to assess any immediate effect and five days post-compound exposure to observe long-term impacts on both the movement and overall body shape in comparison to control animals exposed to DMSO only.

S. mansoni adult worms = assay: Motility assay on adult parasites (pixel displacement, relative to DMSO control); settings: 10 μM; for motility phenotype in words: adults, long-term after washout; for Fractional motility: secondary screen
Experimental: Adult parasites were collected from 40 day-old female CD1 mice (Charles River) previously inoculated by the tail infection method ([Lewis, 2001]). Six weeks post-infection, mice were sacrificed, and adult worms extracted after perfusion of in the hepatic portal vein and mesenteric venules ([Lewis, 2001]). Animal procedures were reviewed and approved by the Facility Animal Care Committee of McGill University (Protocol No. 3346) and were conducted in accordance with the guidelines of the Canadian Council on Animal Care.
(§1) Schistosomulae (200/well) and adult parasites (unpaired worms) were maintained in 300 μL OPTI-MEM with 5% dialyzed FBS (without antibiotics) and exposed to compounds at 1 and 10 μM for 24 h. A kinetic assay consisting of 1, 3, 6 and 12 h incubation times was performed on selected hits by motility monitoring using a stereo microscope (SMZ1270, Nikon) for adults and an inverted microscope for schistosomulae (eclipse TE2000-U, Nikon) connected to a monochrome camera (DS-Qi2, Nikon) for image acquisition. Images were recorded at a rate of 10 frames/s for a period of 1 min and videos were analyzed using ImageJ software (version 1.41, NIH, USA). Parasite movement quantification and data analysis protocols were applied using the pixel displacement method ([Patocka et al., 2014]; [Rashid et al., 2015]) and compared to control parasites treated with DMSO. Parasites were then washed several times in Opti-MEM, 5% FBS and incubated up to an additional three days (schistosomulae) or five days (adult worms) at 37 °C, 5% CO2 and motility was recorded as described above.

[2] = system: S. mansoni schistosomulae; assay: Motility assay on schistosomulae (pixel displacement, relative to DMSO control); settings: for activity at 1 µM: Schistosoma mansoni, read-out: Fractional motility
Experimental: Puerto Rican strain Biomphalaria glabrata snails infected with S. mansoni were kindly provided by Dr. Fred Lewis (Biomedical Research Institute and BEI Resources, MD, USA). Schistosomulae were obtained by exposing six to eight weeks-old snails to continuous light for 2 h at 32 °C. The resulting suspension of cercaria was then mechanically transformed as described ([Lewis, 2001]) and cultured in Opti-MEM/antibiotics (Thermo Fisher Scientific, Waltham, MA) containing 100 μg/mL streptomycin and 100 units/ml penicillin supplemented with 5% fetal bovine serum (FBS; Thermo Fisher). Parasite cultures were incubated at 37 °C with 5% CO2 for at least 10 days with no apparent loss of viability. At this point, animals with internal dark granulations and with no observable body contraction/relaxation cycles were considered dead.
as §1

[3] = schistosomulae, 1h exposure, read at D1, 10 µM
[4] = schistosomulae, 1h exposure, read at D5, 10 µM
[5] = schistosomulae, 3h exposure, read at D5, 10 µM
[6] = schistosomulae, 6h exposure, read at D1, 10 µM
[7] = schistosomulae, 6h exposure, read at D5, 10 µM
[8] = schistosomulae, secondary screen, 24h exposure, read at D1, 1 µM
[9] = schistosomulae, secondary screen, 24h exposure, read at D1, 10 µM
[10] = schistosomulae, secondary screen, 24h exposure, read at D5, 1 µM
[11] = schistosomulae, secondary screen, 24h exposure, read at D5, 10 µM
[12] = 120 h, schistosomulae, secondary screen, 24h exposure, read at D5, 1 µM
[13] = schistosomulae, 3h exposure, read at D1, 10 µM

Compound | Viability (%) [1] | Phenotype [1] | motility phenotype in words (S. mansoni adult worms) | Fractional motility (S. mansoni adult worms; D1, Female adult worms) | Fractional motility (S. mansoni adult worms; D1, Male adult worms) | Fractional motility (S. mansoni adult worms; D5, Female adult worms) | Fractional motility (S. mansoni adult worms; D5, Male adult worms) | Fractional motility [2, 3] | Fractional motility [2, 5] | Fractional motility [2, 6] | Fractional motility [2, 7] | Fractional motility [2, 8] | Fractional motility [2, 9] | Fractional motility [2, 10] | Fractional motility [2, 11] | other results
HO-3867 | 42,5% | dark, granulated | Significant hypomotility | 0.32 | 0.13 | -0.89 | -0.84 | 1.63 | -0.41 | -0.37 | -0.0245 | 1.34 | 2.56 | 1.27 | -0.58 | Fractional motility [2, 4]: -0.56
N#CSc1cc(SC#N)c(N)nc1N [PR-619] | 54,5% | dark, granulated | severely paralyzed adults | 0.35 | 0.35 | -0.88 | -0.93 |  |  |  |  | 2.00 | 0.27 | 0.18 | -0.76 | hypomotility (S. mansoni adult worms; adult male and female parasites, long-term): 94.5%
C#CC[C@H](c1nc2cc(Cl)ccc2c(=O)n1Nc1ccccc1)N(CCCN)C(=O)c1cccc(Cl)c1F [ARQ 621] | 13% | dark, granulated |  | -0.48 | 0.41 | -0.43 | 0.0454 |  |  |  |  | 2.11 | 2.52 |  |  | 
CCCCc1oc2ccccc2c1C(=O)c1cc(I)c(OCCN(CC)CC)c(I)c1 [Amiodarone] |  | big, granulated |  | -0.67 | -0.41 | -0.58 | -0.38 |  |  |  |  |  | -0.80 |  | -0.98 | activity at 1 µM [2, 12]: 78%; activity at 1 µM [2, 8]: -11%
COc1cc(N2CCC(N)CC2)ccc1Nc1ncc(Cl)c(-c2c[nH]c3ccccc23)n1 [AZD3463] | 42,5% | dark, granulated | Significant hypomotility | -0.12 | 0.58 | -0.93 | -0.57 | 1.70 | -0.68 | 2.17 | -0.70 | 0.62 | 1.68 | 0.15 | -0.81 | Fractional motility [2, 4]: -0.84; Fractional motility [2, 13]: 5.60
CCOC(=O)CCNc1cc(N2CCc3ccccc3CC2)nc(-c2ccccn2)n1 [GSK J4] | 5% | big, dark, granulated | Significant hypomotility | -0.0455 | -0.11 | -0.64 | -0.63 | 0.43 | -0.56 | -0.78 | -0.70 | 0.46 | -0.85 | 0.88 | -1.00 | Fractional motility [2, 4]: 0.28; Fractional motility [2, 13]: -0.55
c1cc(-c2cnn3cc(-c4ccc(N5CCNCC5)cc4)cnc23)c2cccnc2c1 [LDN-212854] | 0% | dark, granulated | Significant hypomotility | 0.29 | 0.78 | -0.84 | -0.87 | 9.63 | -0.97 | -0.98 | -0.92 | 3.02 | 11.26 | -0.46 | -0.80 | Fractional motility [2, 4]: -0.87; Fractional motility [2, 13]: -0.97; motility in extended assay with reduced incubation times, in words ([2]; three-day old schistosomulae, incubation 1 h, 3 h, 6 h): significant and sustained hypomotility
CCCCCCCCCCCCCCCCn1cc[n+](Cc2ccccc2)c1C.[I-] [NH125] | 18% | big, dark, granulated | Significant hypomotility | -0.74 | 0.53 | -0.89 | -0.87 |  |  |  |  | 1.58 | -0.66 | -0.08 | -0.55 | 
O=c1[nH]c2ccc(Cl)cc2c(N[C@@H]2CN3CCC2CC3)c1-c1nc2ccccc2[nH]1 [CHIR-124] | 77% | big |  | 4.53 | 10.48 | -0.48 | -0.25 |  |  |  |  |  |  |  |  | Fractional motility ([2]; Selleckchem customized library secondary screen, 24h, D1, 1 µM): 6.60; Fractional motility ([2]; Selleckchem customized library secondary screen, 24h, D1, 10 µM): 100.65
Cc1cnc(-c2cc(N3CCN(C(=O)CCS(C)(=O)=O)CC3)ncc2Cl)c(C)c1 [PF-5274857] | 96.5% | granulated |  | -0.02 | -0.62 | -0.13 | -0.56 |  |  |  |  | -0.26 | 0.15 | -0.49 | 4.02 | 
CCc1ccc(OCc2ccccc2C(=O)Nc2ccc3nc(C)cc(N)c3c2)cc1 [JTC-801] | 0% | big, granulated |  | 1.22 | 4.15 |  | -0.56 | -0.51 | -0.09 | -0.74 | -0.71 | 3.71 | -1.00 | 1.04 | -0.99 | effect on viability of schistosomulae in words ([1]; 24 h incubation, five days): lethal; Fractional motility [2, 13]: -0.95
C/C(=N\NC(=S)N1CCC1)c1ccccn1 [NSC319726] | 68% | dark, granulated |  | -0.13 | -0.16 | -0.84 | -0.08 |  |  |  |  | 0.0562 | 0.59 | -0.75 | -0.93 | 
O=C(NC(NC(=S)Nc1ccc(F)c([N+](=O)[O-])c1)C(Cl)(Cl)Cl)C(c1ccccc1)c1ccccc1 (stereo not shown) [CGK 733] | 62,5% | dark, granulated, some big |  | -0.10 | 0.12 | -0.83 | -0.19 |  |  |  |  | 0.41 | -0.71 | -0.07 | -0.90 | 
O=C(C1CCCCC1)N1CC(=O)N2CCc3ccccc3C2C1 (stereo not shown) [PZQ, praziquantel] |  |  |  | -0.96 | -0.98 | -0.98 | -0.99 |  |  |  |  |  | -0.47 |  | -0.47 | activity at 1 µM [2, 12]: -29%; activity at 1 µM [2, 8]: -30%
